What was measured:
3D7 P. falciparum strain = test: parasite proliferation assay in infected red blood cells (SYBR Green I); type: cell-based, Plasmodium falciparum; details: Plasmodium falciparum, 3D7, Erythrocyte, 3D7 strain; read-out: EC50 3D7 strain
Description: (§1) Compounds of the invention can be assayed to measure their capacity to inhibit proliferation of parasitemia in infected red blood cells. The proliferation is quantified by the addition of SYBR Green I (INVITROGEN)® dye which has a high affinity for double stranded DNA.
The following assay illustrates the invention without in any way limiting the scope of the invention. This parasite proliferation assay measures the increase in parasite DNA content using a DNA intercalating dye, SYBR Green®.
3D7 P. falciparum strain is grown in complete culturing media until parasitemia reaches 3% to 8% with O+ human erythrocytes. 20 μl of screening media is dispensed into 384 well assay plates. […] 10 μl of lysis buffer (saponin, triton-X, EDTA) containing a 10× solution of SYBR Green I® in RPMI media is dispensed into the plates. The plates are lidded and kept at room temperature overnight for the lysis of the infected red blood cells.

W2 strain = test: parasite proliferation assay in infected red blood cells (SYBR Green I), W2 strain; type: cell-based; details: Erythrocyte
Description: as §1

Row | SMILES | EC50 (3D7 P. falciparum strain) [µM] | EC50 (W2 strain) [µM]
1 | CC(C)(N)C(=O)N1CCn2c(nc(C3CCCCC3)c2Nc2ccc(F)cc2)C1 [Compound 15] | 2.63 | 2.11
2 | CC(C)(N)C(=O)N1CCn2c(nc(-c3ccc(F)cc3)c2Nc2cccnc2)C1 [Compound 16] | 14.1 | 3.33
3 | C[C@H](N)C(=O)N1CCn2c(nc(-c3ccc(F)cc3)c2Nc2ccc(F)cc2)C1 [Compound 17] | 0.09 | 0.064
4 | NCCCC(=O)N1CCn2c(nc(-c3ccc(F)cc3)c2Nc2ccc(F)cc2)C1 [Compound 18] | 12.3 | 8.14
5 | N[C@@H](Cc1ccccc1)C(=O)N1CCn2c(nc(-c3ccc(F)cc3)c2Nc2ccc(F)cc2)C1 [Compound 19] | 0.07 | 0.059
6 | N[C@H](Cc1ccccc1)C(=O)N1CCn2c(nc(-c3ccc(F)cc3)c2Nc2ccc(F)cc2)C1 [Compound 20] | 0.11 | 0.121
7 | CC(C)(N)C(=O)N1CCn2c(nc(-c3ccc(F)cc3)c2Nc2ccc(Br)cc2)C1 [Compound 21] | 0.1 | 0.078
8 | CN(C)CC(=O)N1CCn2c(nc(-c3ccc(F)cc3)c2Nc2ccc(F)cc2)C1 [Compound 22] | 1.3 | 0.691
9 | CC(C)(N)C(=O)N1CCn2c(nc(-c3ccc(F)cc3)c2NCc2ccccc2)C1 [Compound 23] | > 10.6 | 10.5
10 | Cc1ccc(-c2c(-c3ccc(Cl)cc3)nc3cnccn23)cc1 [Compound 24] | 8.92 | 2.86
11 | CC(=O)NCC(=O)N1CCn2c(nc(-c3ccc(F)cc3)c2Nc2ccc(F)cc2)C1 [Compound 25] | > 10.6 | 4.35
12 | CC(C)(N)C(=O)N1CCn2c(nc(-c3ccc(F)cc3)c2NC2CCCCC2)C1 [Compound 27] | 9.61 | 5.98
13 | NCC(=O)N1CCn2c(nc(-c3ccc(F)cc3)c2Nc2ccc(F)c(F)c2)C1 [Compound 30] | 0.03 | 0.023
14 | CC(C)(N)C(=O)N1CCn2c(nc(-c3ccc(F)cc3)c2-c2ccc(F)cc2)C1 [Compound 31] | 13.1 | 6.89
15 | O=C(CN1CCCC1)N1CCn2c(nc(-c3ccc(F)cc3)c2Nc2ccc(F)cc2)C1 [Compound 33] | 0.74 | 1.62
16 | NCCC(=O)N1CCn2c(nc(-c3ccc(F)cc3)c2Nc2ccc(F)cc2)C1 [Compound 34] | 0.07 | 0.075
17 | CC(C)(N)C(=O)N1CCn2c(nc(-c3ccc(F)cc3)c2Nc2cccc(F)c2)C1 [Compound 35] | 0.12 | 0.105
18 | NCC(=O)N1CCn2c(nc(-c3ccc(F)cc3)c2Nc2cccc(F)c2)C1 [Compound 36] | 0.05 | 0.034
19 | CC(C)(N)C(=O)N1CCn2c(nc(-c3ccc(F)cc3)c2Nc2ccc(Cl)cc2)C1 [Compound 39] | 0.02 | 0.024
20 | NCC(=O)N1CCn2c(nc(-c3ccc(F)cc3)c2Nc2ccc(Cl)cc2)C1 [Compound 40] | 0.01 | 0.009
21 | O=C(CN1CCOCC1)N1CCn2c(nc(-c3ccc(F)cc3)c2Nc2ccc(F)cc2)C1 [Compound 41] | 2.65 | 1.79
22 | O=C(CN1CCS(=O)(=O)CC1)N1CCn2c(nc(-c3ccc(F)cc3)c2Nc2ccc(F)cc2)C1 [Compound 42] | 6.1 | 4.61
23 | O=C(CN1CCCC(F)(F)C1)N1CCn2c(nc(-c3ccc(F)cc3)c2Nc2ccc(F)cc2)C1 [Compound 43] | 0.18 | 0.149
24 | NC1(C(=O)N2CCn3c(nc(-c4ccc(F)cc4)c3Nc3ccc(F)cc3)C2)CC1 [Compound 45] | 0.98 | 1.33

Row | SMILES | EC50 (3D7 P. falciparum strain) [µM] | EC50 (W2 strain) [µM]
25 | Cc1ccc(-c2c(-c3ccc(Cl)cc3)nc3n2CCN(C(=O)C(C)(C)N)C3)cc1 [Compound 47] | 6.98 | 6.18
26 | Fc1ccc(Nc2c(-c3ccc(F)cc3)nc3n2CCN(Cc2ccccc2)C3)cc1 [Compound 48] | 1.84 | 1.75
27 | O=C(NCC(=O)N1CCn2c(nc(-c3ccc(F)cc3)c2Nc2ccc(F)cc2)C1)OCc1ccccc1 [Compound 49] | 2.29 | 1.9
28 | NC(C(=O)N1CCn2c(nc(-c3ccc(F)cc3)c2Nc2ccc(F)cc2)C1)C(F)(F)F (stereo not drawn) [Compound 50] | 0.18 | 0.187
29 | NCC(=O)N1CCn2c(nc(-c3ccc(F)cc3O)c2Nc2ccc(F)cc2)C1 [Compound 51] | 0.07 | 0.062
30 | Cc1ccc(-c2nc3n(c2Nc2ccc(F)cc2)CCN(C(=O)CN)C3)cc1 [Compound 52] | 3.14 | 3.36
31 | COc1ccc(-c2nc3n(c2Nc2ccc(F)cc2)CCN(C(=O)CN)C3)cc1 [Compound 53] | 2.27 | 1.7
32 | NCC(=O)N1CCn2c(nc(-c3ccc(Br)cc3)c2Nc2ccc(F)cc2)C1 [Compound 54] | 1.29 | 0.764
33 | NCC(=O)N1CCn2c(nc(-c3ccc(Cl)cc3)c2Nc2ccc(F)cc2)C1 [Compound 55] | 0.66 | 0.437
34 | NCC(=O)N1CCn2c(nc(-c3cccc(F)c3)c2Nc2ccc(F)cc2)C1 [Compound 56] | 0.01 | 0.013
35 | O=C(CN1CCC(F)(F)C1)N1CCn2c(nc(-c3ccc(F)cc3)c2Nc2ccc(F)cc2)C1 [Compound 57] | 0.31 | 0.294
36 | O=C(CN1CC[C@@H](F)C1)N1CCn2c(nc(-c3ccc(F)cc3)c2Nc2ccc(F)cc2)C1 [Compound 58] | 0.47 | 0.28
37 | O=C(CN1CC[C@H](F)C1)N1CCn2c(nc(-c3ccc(F)cc3)c2Nc2ccc(F)cc2)C1 [Compound 59] | 1.09 | 0.735
38 | O=C(CN1CCC(F)CC1)N1CCn2c(nc(-c3ccc(F)cc3)c2Nc2ccc(F)cc2)C1 [Compound 60] | 2.46 | 2.13
39 | O=C(CN1CCC(F)(F)CC1)N1CCn2c(nc(-c3ccc(F)cc3)c2Nc2ccc(F)cc2)C1 [Compound 62] | 4.74 | 4.74
40 | O=C(CN1CCCC(C(F)(F)F)C1)N1CCn2c(nc(-c3ccc(F)cc3)c2Nc2ccc(F)cc2)C1 (stereo not drawn) [Compound 63] | 1.95 | 1.61
41 | O=C(CN1CCCC(O)C1)N1CCn2c(nc(-c3ccc(F)cc3)c2Nc2ccc(F)cc2)C1 (stereo not drawn) [Compound 64] | 9.37 | 6.46
42 | O=C(CNCC(F)F)N1CCn2c(nc(-c3ccc(F)cc3)c2Nc2ccc(F)cc2)C1 [Compound 65] | 0.47 | 0.509
43 | CC(C)(N)C(=O)N1CCn2c(nc(-c3ccc(F)cc3)c2Nc2cc(F)cc(F)c2)C1 [Compound 66] | 0.22 | 0.244
44 | NCC(=O)N1CCn2c(nc(-c3ccc(F)cc3)c2Nc2cc(F)cc(F)c2)C1 [Compound 67] | 0.19 | 0.197
45 | O=C(CNC1CC1)N1CCn2c(nc(-c3ccc(F)cc3)c2Nc2ccc(F)cc2)C1 [Compound 68] | 0.15 | 0.264
46 | CC(C)CNCC(=O)N1CCn2c(nc(-c3ccc(F)cc3)c2Nc2ccc(F)cc2)C1 [Compound 69] | 0.08 | 0.094
47 | CC(C)(N)C(=O)N1CCn2c(nc(-c3ccc(F)cc3)c2Nc2ccc(C(F)(F)F)cc2)C1 [Compound 72] | 0.95 | 0.589
48 | NCC(=O)N1CCn2c(nc(-c3ccc(F)cc3)c2Nc2ccc(C(F)(F)F)cc2)C1 [Compound 73] | 0.08 | 0.059

Reference: US9469645B2, “Compounds and compositions for the treatment of parasitic diseases” (Novartis AG, priority 2009, dated 2016)
